{"source": "patent US10584159B2", "about": "“Renilla based biosensors for monitoring biomolecule localization and trafficking in cells” (The Royal Institution for the Advancement of …, priority 2014, dated 2020)", "key": {"[1]": {"target": "T1, AT1R (Homo sapiens, UniProt P30556)", "T1 construct": "expressed in transfected cells; host or cells: HEK293SL", "T1 sequence (P30556 1-359)": "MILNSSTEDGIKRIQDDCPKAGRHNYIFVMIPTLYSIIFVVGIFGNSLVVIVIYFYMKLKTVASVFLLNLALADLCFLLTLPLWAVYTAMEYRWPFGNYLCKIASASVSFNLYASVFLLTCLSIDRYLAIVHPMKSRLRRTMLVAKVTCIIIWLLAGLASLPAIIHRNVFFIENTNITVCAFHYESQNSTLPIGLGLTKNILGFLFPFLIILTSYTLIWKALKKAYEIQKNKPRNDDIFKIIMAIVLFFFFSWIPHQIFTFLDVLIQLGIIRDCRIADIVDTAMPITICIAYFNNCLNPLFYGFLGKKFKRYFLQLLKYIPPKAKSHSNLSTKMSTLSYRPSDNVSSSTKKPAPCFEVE", "assay": "PKN-based RhoA activation BRET assay (PKN-crib-RlucII/rGFP-CAAX) with AT1R", "format": "cell-based", "details": "100 nM Ubo-Qic 30 min, ligand 4 min", "experimental": "(§1) BRET measurements for FIGS. 1B to 9D, 25D to 25F. The following day of transfection, cells were detached and replated onto poly-ornithine coated white 96-well plate at a density of 25,000 cells per well. The next day, cells were washed once with pre-warmed Tyrode's buffer (140 mM NaCl, 2.7 mM KCl, 1 mM CaCl2, 12 mM NaHCO3, 5.6 mM D-glucose, 0.5 mM MgCl2, 0.37 mM NaH2PO4, 25 mM HEPES, pH 7.4), and then stimulated with either various concentrations of ligands in Tyrode's buffer for the indicated time, or single concentration of ligands for various times at 37° C. For recycling experiment, after stimulating the cells with the ligands for 30 min at 37° C., they were washed either three times with ice-cold Tyrode's buffer or once with Tyrode's buffer/three times with acid (50 mM sodium citrate, pH 4.0)/two times with Tyrode's buffer. All the washing steps were performed on ice. […] The cell-permeable substrate, coelenterazine 400a was added at a final concentration of 5 μM in Tyrode's buffer 3-4 min before BRET measurements. […] The BRET signal was determined by calculating the ratio of the light intensity emitted by the GFP10 or rGFP over the light intensity emitted by the RlucII. All the BRET measurements were performed in triplicate at 37° C.\nPKN-based RhoA activation assay. For FIGS. 25B-D, HEK293SL cells were grown in DMEM supplemented with 6% fetal bovine serum (FBS) and 20 μg/ml gentamycin, at 37° C. Cells were seeded at a density of 7.5×10^5 cells per 100 mm dishes and were transiently transfected the next day with constructs encoding AT1R (3 μg) along with PKN-crib-RlucII (90 ng) and rGFP-CAAX (480 ng) using calcium phosphate method as described previously. After 24 h, cells were detached and seeded onto poly-ornithine-coated 96-well white plates at a density of 25 000 cells per well in media. The next day, cells were washed once with Tyrode's buffer and left in 80 μl of Tyrode's buffer at 37° C. When indicated, cells were treated with Ubo-Qic 100 nM for 30 min or C3 toxin for 3 μg/ml (in FIG. 25I), 4 hours at 37° C. Cell stimulation and BRET measurements were done at RT. BRET signals were monitored by addition of Coel-400a to a final concentration of 5 μM using a Synergy2 (BioTek®) microplate reader. […] For FIG. 25B, a transfection mix of 200 ng of TPαR, 20 ng PKN-RlucII, 600 ng CAAX-rGFP, complemented to 2 μg with ssDNA and PEI at a ratio of PEI:DNA of 3:1, is added to 3 ml of Hek293SL (350 000 cells/ml). Cells were seeded on poly-D-lysine pretreated plates. […] Cells were stimulated for 2 min with the indicated doses of U46619. […] For FIGS. 25I and J, a transfection mix of 200 ng of TPαR, 20 ng PKN-RlucII, 600 ng CAAX-rGFP, complemented to 2 μg with ssDNA and PEI at a ratio of PEI:DNA of 3:1, is added to 3 ml of Hek293SL (350,000 cells/ml). Cells were seeded on poly-D-lysine pretreated plates. 24 h post-transfection, the Rho inhibitor (CT04; Cytoskeleton, Inc) was added when indicated, overnight at final concentration 2 μg/ml. 48 h post-transfection, cells were washed and preincubated in Tyrode +1 mM CaCl2 at 37° C. for 60 min then treated, as indicated, with 100 nM of U46619 or 1 μg/ml of Rho activator II (CN03; Cytoskeleton, Inc) for 1 min at 37° C. […] BRET was measured at 37° C., using a Tristar Microplate Reader (Berthold Technologies)."}, "[2]": {"test_system": "V2R mutants (Y128S and W164S)", "assay": "BRET pharmacological chaperone rescue assay (rGFP-CAAX), V2R mutants", "format": "cell-based, human", "details": "10 μM, 16 h, BRET1", "experimental": "BRET assay for evaluation of PC rescue of cell surface expression and functionality (sequestration assay). In FIGS. 12A to 18E, Hek293 cells were transiently transfected using PEI as described in this section. The DNA transfected per well of a 96-well plate is as follow: in FIGS. 12A and 12B, with 2.4 ng of hMC4R-RlucII encoding construct and an increasing quantity of rGFP-CAAX (Kras) up to 9.6 ng for FIGS. 12A and for 12B, rGFP-PB up to 9.6 ng; in FIGS. 13A to 13C with 0.6, 1.2 or 2.4 ng of hMC4R-RlucII and 4.8 ng of rGFP-CAAX (Kras); in FIG. 13D with 2.4 ng of polycistronic rGFP-CAAX(Kras)/MC4R-RlucII construct; in FIG. 13E with 1.2 ng of hV2R-RlucII and 4.8 ng of rGFP-CAAX (Kras); in FIGS. 14A to 16B with 2.4 ng of hMC4R-RlucII and 7.2 ng of rGFP-CAAX (Kras); Hek293 cells stably expressing rGFP-CAAX(Kras) were transfected with 0.6, 1.2 or 2.4 ng of hMC4R-RlucII; in FIG. 17A or 0.6, 1.2 or 2.4 ng of hV2R_Y128S-RlucII; in FIG. 17B; in FIGS. 18A and 18B with 0.6, 1.2 or 2.4 ng of hERG-RlucII and 4.8 ng of rGFP-CAAX (Kras); and in FIGS. 18C-18E with 0.6 ng of hERG-RlucII and 7.2 ng of rGFP-CAAX (Kras). […] For the BRET assay, cells were washed once with PBS and left in Tyrode's buffer. […] BRET values were determined by calculating the ratio of the light emitted by the acceptor over the light emitted by the RlucII."}, "[3]": {"target": "T2, AT1R (Homo sapiens, UniProt P30556)", "T2 sequence (P30556 with tags, fused parts or gaps)": "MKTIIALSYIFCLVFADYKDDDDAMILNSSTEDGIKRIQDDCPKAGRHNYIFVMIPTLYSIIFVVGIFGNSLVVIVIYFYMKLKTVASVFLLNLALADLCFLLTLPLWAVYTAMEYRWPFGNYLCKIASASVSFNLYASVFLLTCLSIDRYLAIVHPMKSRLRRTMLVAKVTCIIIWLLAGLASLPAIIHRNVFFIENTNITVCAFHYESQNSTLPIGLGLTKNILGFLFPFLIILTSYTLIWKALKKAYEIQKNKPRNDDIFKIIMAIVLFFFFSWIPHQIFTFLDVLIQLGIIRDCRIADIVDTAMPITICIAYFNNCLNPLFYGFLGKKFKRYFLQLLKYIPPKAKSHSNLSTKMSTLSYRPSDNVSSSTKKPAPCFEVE", "assay": "AT1R endocytosis BRET at plasma membrane (AT1R-RlucII/lyn-rGFP)", "format": "cell-based", "design": "signal peptide-Flag-human AT1R (spFlag-AT1R); signal peptide (N); expressed in transfected cells; host or cells: HEK293SL (HEK293 for the screen)", "details": "0.45 M sucrose 20 min", "experimental": "as §1\n(§2) Data Analysis. Estimation of the t1/2 and the EC50 values for ligand-mediated endocytosis were calculated using the GraphPad® Prism curve fitting program The curves presented throughout this study, representing the best fits, and were generated using this GraphPad® Prism program as well."}, "[4]": {"target": "T2, AT1R", "assay": "AT1R trafficking to endosomes BRET (AT1R-RlucII/rGFP-endofinFYVE)", "format": "cell-based", "design": "expressed in transfected cells; host or cells: HEK293SL (HEK293 for the screen)", "experimental": "as §1, §2"}, "[5]": {"target": "T1, AT1R", "assay": "β-arrestin2 targeting to endosomes BRET (AT1R/βarr2-RlucII/rGFP-endofinFYVE)", "format": "cell-based", "experimental": "BRET measurements for FIGS. 1B to 9D, 25D to 25F. The following day of transfection, cells were detached and replated onto poly-ornithine coated white 96-well plate at a density of 25,000 cells per well. The next day, cells were washed once with pre-warmed Tyrode's buffer (140 mM NaCl, 2.7 mM KCl, 1 mM CaCl2, 12 mM NaHCO3, 5.6 mM D-glucose, 0.5 mM MgCl2, 0.37 mM NaH2PO4, 25 mM HEPES, pH 7.4), and then stimulated with either various concentrations of ligands in Tyrode's buffer for the indicated time, or single concentration of ligands for various times at 37° C. For recycling experiment, after stimulating the cells with the ligands for 30 min at 37° C., they were washed either three times with ice-cold Tyrode's buffer or once with Tyrode's buffer/three times with acid (50 mM sodium citrate, pH 4.0)/two times with Tyrode's buffer. All the washing steps were performed on ice. Cells were then further incubated with Tyrode's buffer at 37° C. in a water bath for 45 min. The cell-permeable substrate, coelenterazine 400a was added at a final concentration of 5 μM in Tyrode's buffer 3-4 min before BRET measurements. Measurements were performed by using Synergy2 (BioTek®) microplate reader with a filter set of 410±80 nm and 515±30 nm for detecting the RlucII Renilla luciferase (donor) and GFP10 or rGFP (acceptor) light emissions, respectively. The BRET signal was determined by calculating the ratio of the light intensity emitted by the GFP10 or rGFP over the light intensity emitted by the RlucII. All the BRET measurements were performed in triplicate at 37° C."}, "[6]": {"target": "T2, AT1R", "assay": "AT1R sorting to rab4 vesicles BRET (AT1R-RlucII/rGFP-rab4)", "format": "cell-based", "design": "expressed in transfected cells; host or cells: HEK293SL (HEK293 for the screen)", "details": "100 nM AngII, 100 nM SI, 1 μM DVG", "experimental": "as §1"}}}
{"compound": "CC[C@H](C)[C@H](NC(=O)[C@H](Cc1ccc(O)cc1)NC(=O)[C@@H](NC(=O)[C@H](CCCNC(=N)N)NC(=O)CNC)C(C)C)C(=O)N[C@@H](Cc1cnc[nH]1)C(=O)N1CCC[C@H]1C(=O)N[C@H](C)C(=O)O", "note": "[TRV, [Sar1-D-Ala8] AngII]", "values": [{"measurement": "impact of Gq inhibition on ligand-mediated Rho activation", "setting": "[1]", "result": "did not affect"}]}
{"compound": "CCOc1ccc2c(c1)C1(CCC(OCCN3CCOCC3)CC1)C(=O)N2S(=O)(=O)c1ccc(C(=O)NC(C)(C)C)cc1OC", "note": "(centres unmarked) [SR121463]", "values": [{"measurement": "PC-mediated rescue of cell surface expression", "setting": "[2]", "result": "PC-mediated rescue"}]}
{"compound": "OC[C@H]1O[C@@](CO)(O[C@H]2O[C@H](CO)[C@@H](O)[C@H](O)[C@H]2O)[C@@H](O)[C@@H]1O", "note": "[sucrose]", "values": [{"measurement": "effect on AngII-induced BRET response at the plasma membrane", "setting": "[3]", "result": "efficiently blocked"}, {"measurement": "effect on AngII-induced BRET response in the endosomes (receptor)", "setting": "[4]; 0.45 M sucrose 20 min", "result": "efficiently blocked"}, {"measurement": "effect on AngII-induced BRET response in the endosomes (β-arrestin2)", "setting": "[5]; 0.45 M sucrose 20 min", "result": "efficiently blocked"}]}
{"compound": "CC[C@H](C)[C@H](NC(=O)[C@@H]1CCCN1C(=O)[C@H](Cc1c[nH]cn1)NC(=O)[C@@H](NC(=O)[C@H](Cc1ccc(O)cc1)NC(=O)[C@@H](NC(=O)[C@H](CCCNC(=N)N)NC(=O)CNC)C(C)C)[C@@H](C)CC)C(=O)O", "note": "[SI, [Sar^1, IIe^8]-AngII]", "values": [{"measurement": "time to maximal AT1R internalization into endosomes", "setting": "[4]; 100 nM SI or 1 μM DVG", "result": 20, "unit": "min"}, {"measurement": "less efficacious than AngII at promoting AT1R concentration in early endosomes", "setting": "[4]; 100 nM SI or 1 μM DVG vs 100 nM AngII", "result": 20, "unit": "%"}, {"measurement": "receptor accumulation in endosomes, compared to AngII", "setting": "[4]; 40 min", "result": "promoted less receptor accumulation in endosomes"}, {"measurement": "β-arrestin2 trafficking to endosomes with receptors, compared to AngII", "setting": "[5]; 40 min", "result": "weakly promoted"}, {"measurement": "impact of Gq inhibition on ligand-mediated Rho activation", "setting": "[1]", "result": "reduced efficacy and a rightward-shifted potency"}, {"measurement": "time at which BRET signal plateaued", "setting": "[6]", "result": 10, "unit": "min"}]}
{"compound": "CNCC(=O)N[C@@H](CCCN=C(N)N)C(=O)N[C@H](C(=O)N[C@@H](Cc1ccc(O)cc1)C(=O)N[C@H](C(=O)N[C@@H](Cc1cnc[nH]1)C(=O)N1CCC[C@H]1C(=O)N[C@@H](C)C(=O)O)C(C)C)C(C)C", "note": "[Saralasin]", "values": [{"measurement": "impact of Gq inhibition on ligand-mediated Rho activation", "setting": "[1]", "result": "did not affect"}]}
{"compound": "CO/C1=C\\C(C)=C\\[C@@H](C)[C@@H](O)[C@@H](C)C/C(C)=C/C=C/[C@H](OC)[C@@H]([C@@H](C)[C@@H](O)[C@H](C)[C@@]2(O)C[C@@H](O)[C@H](C)[C@@H](C(C)C)O2)OC1=O", "note": "[bafilomycin A]", "values": [{"measurement": "effect on agonist-mediated accumulation of AT1R in endosomes", "setting": "[4]; AngII 40 min", "result": "increased"}]}
{"compound": "[Sar1-Val5-D-Phe8] AngII [SVdF]", "values": [{"measurement": "impact of Gq inhibition on ligand-mediated Rho activation", "setting": "[1]", "result": "reduced efficacy and a rightward-shifted potency"}]}
